What is called IC50 is the concentration needed to halve the response being measured.

We go through 18 molecules from publication PMC3070195 (Bioconjugate chemistry, 2010).

Some results are limits rather than exact numbers.

Series [1] concerns Vero cells. The experiment in a line: Cytotoxicity in Vero cells. Type of series: cell-based, African green monkey. The note with it: 3 days, hemacytometer; for IC50: read-out: Cytotoxicity IC50 VERO cells.
Series [2] has as its system PBM cells. The experiment in a line: Cytotoxicity in uninfected PHA-stimulated PBM cells. It counts as cell-based, human. The note with it: 6 days, cell growth, trypan blue exclusion.
Assay in series [3]: as above
Type of series: cell-based, human. The note with it: human, uninfected PHA-stimulated PBM cells.

Series [4] in a line: Cytotoxicity in CEM cells. The note with it: human, CEM (CEM-CCRF) T-lymphoblastoid cells. Type of series: cell-based.
Series [5] is described as follows: Cytotoxicity in Vero cells. To be noted: African green monkey, Vero (kidney) cells. Type of series: cell-based, African green monkey.

With `O=c1ccn([C@H]2C=C[C@@H](COP(=O)(O)OC[C@H]3OC(O)[C@H](O)[C@@H](O)[C@@H]3O)O2)c(=O)[nH]1` (stereo partly drawn) [10a, 2′,3′-Didehydro-2′,3′-dideoxyuridine 5′-(α/β-D-glucopyranos-6-yl) phosphate], the IC50 in series [1] was above 100 µM.
For the molecule `Cc1cn([C@H]2C=CC(COP(=O)(O)OC[C@H]3O[C@H](O)[C@H](O)[C@@H](O)[C@@H]3O)O2)c(=O)[nH]c1=O` (stereo partly drawn) [10b, 2′,3′-Didehydro-2′,3′-dideoxythymidine 5′-(α/β-D-glucopyranos-6-yl) phosphate], the “Cytotoxicity IC50 PBM cells” value in series [2] is reported as “no cytotoxicity”. In series [1], the “Cytotoxicity IC50 VERO cells” value was “no cytotoxicity” and the 50% inhibitory concentration (IC50) was above 100 µM.
As for `O=c1[nH]c(=O)n([C@H]2C[C@H](O)[C@@H](COP(=O)(O)OC[C@H]3OC(O)[C@H](O)[C@@H](O)[C@@H]3O)O2)cc1I` (stereo partly drawn) [10c, 2′-Deoxy-5-iodouridine 5′-(α/β-D-glucopyranos-6-yl) phosphate], the IC50 in series [1] was above 100 µM.
The same measure, in the same setting: in the case of `O=c1[nH]c(=O)n([C@H]2C[C@H](OP(=O)(O)OC[C@H]3O[C@H](O)[C@H](O)[C@@H](O)[C@@H]3O)[C@@H](CO)O2)cc1I` [10d, 2′-Deoxy-5-iodouridine 3′-(α/β-D-glucopyranos-6-yl) phosphate] it was above 100 µM.
As for `O=c1[nH]cnc2c1ncn2[C@H]1CC[C@@H](COP(=O)(O)OC[C@H]2OC(O)[C@H](O)[C@@H](O)[C@@H]2O)O1` (stereo partly drawn) [10e, 2′,3′-Dideoxyinosine 5′-(α/β-D-glucopyranos-6-yl) phosphate], the IC50 in series [1] is above 100 µM.
For the molecule `Nc1ncnc2c1ncn2[C@H]1CC[C@@H](COP(=O)(O)OC[C@H]2OC(O)[C@H](O)[C@@H](O)[C@@H]2O)O1` (stereo partly drawn) [10f, 2′,3′-Dideoxyadenosine 5′-(α/β-D-glucopyranos-6-yl) phosphate], in series [1], the IC50 stood at 73.2 µM.
On the same count and under the same terms, the value for `NC(=O)c1ncn([C@@H]2O[C@H](COP(=O)(O)OC[C@H]3OC(O)[C@H](O)[C@@H](O)[C@@H]3O)[C@@H](O)[C@H]2O)n1` (stereo partly drawn) [10g, 1′-(3-Carbamoyl-1,2,4-triazoyl)-β-D-ribofuranose 5′-(α/β-D-glucopyranos-6-yl) phosphate] was above 100 µM.
`Nc1ncnc2c1ncn2[C@@H]1O[C@H](COP(=O)(O)OC[C@H]2OC(O)[C@H](O)[C@@H](O)[C@@H]2O)[C@@H](O)[C@@H]1O` (stereo partly drawn) [10h, 1′-Adeninyl-β-D-arabinofuranose 5′-(α/β-D-glucopyranos-6-yl) phosphate]: the IC50 in series [1] is above 100 µM.
With `Nc1ccn([C@@H]2O[C@H](COP(=O)(O)OC[C@H]3OC(O)[C@H](O)[C@@H](O)[C@@H]3O)[C@@H](O)[C@@H]2O)c(=O)n1` (stereo partly drawn) [10i, 1′-Cytosinyl-β-D-arabinofuranose 5′-(α/β-D-glucopyranos-6-yl) phosphate], the IC50 in series [1] is below 1 µM.
In series [3], `Cc1cn([C@H]2C[C@H](N=[N+]=[N-])[C@@H](CO)O2)c(=O)[nH]c1=O` [AZT, zidovudine] had an IC50 at 6 days above 100 µM.
For the molecule `Nc1ncnc2c1ncn2[C@@H]1O[C@H](CO)[C@@H](O)[C@@H]1O` [Ara-A, ara-adenosine], the figures for the IC50 at 6 days in series [3] and in series [4] were 26 µM and 26.2 µM, respectively. In series [5], this molecule returned an IC50 at 3 days above 100 µM.
Take `Nc1ccn([C@@H]2O[C@H](CO)[C@@H](O)[C@@H]2O)c(=O)n1` [Ara-C, Ara-cytidine]: the values for the concentration for half-maximal inhibition (IC50) at 6 days in series [3] and in series [4] were 57 µM and below 0.1 µM, respectively.
Regarding `O=c1[nH]c(=O)n([C@H]2C[C@H](O)[C@@H](CO)O2)cc1I` [IdUrd], the IC50 in series [1] was above 100 µM.
Take `NC(=O)c1ncn([C@@H]2O[C@H](CO)[C@@H](O)[C@H]2O)n1` [Virazole]: the IC50 at 6 days in series [3] is above 100 µM; in series [4] it was 53 µM. For the same molecule, the IC50 at 3 days in series [5] is above 100 µM.
Turning to `Cc1cn([C@H]2C=C[C@@H](CO)O2)c(=O)[nH]c1=O` [d4T], the IC50 in series [1] was above 100 µM.
For `O=c1ccn([C@H]2C=C[C@@H](CO)O2)c(=O)[nH]1` [d4U], in series [1], the IC50 is above 100 µM.
Turning to `Nc1ncnc2c1ncn2[C@H]1CC[C@@H](CO)O1` [ddA], the IC50 in series [1] was above 100 µM.
As to `O=c1[nH]cnc2c1ncn2[C@H]1CC[C@@H](CO)O1` [ddI], in series [1], the IC50 was above 100 µM.
